According to publication PMC7764665, “Food (Matrix) Effects on Bioaccessibility and Intestinal Permeability of Major Olive Antioxidants” (Foods, 2020):
≈ marks a conversion by molar mass, not a printed value. Where “and” joins values, the source holds several entries; their conditions need not be identical. Identical values can stand only once.

Key:
[1] = set-up: method as in PMID 29663812; details: co-digestion with the test meal; cited from earlier work
[2] = set-up: method as in PMID 11435519; details: rat model, lipid-rich matrix (olive oil); cited from earlier work
[3] = tested on: Caco-2 Cells; set-up: method as in PMID 29663812; details: co-digestion with the test meal; cited from earlier work
[4] = Standardized static in vitro simulation of gastrointestinal digestion of OPE (bioaccessibility), alone or co-digested with food; format: in vitro ADME; details: fed vs fasted state biorelevant media (FeSSGF/FeSSIF vs FaSSGF/FaSSIF)
[5] = source not given; cited from earlier work
[6] = tested on: Caco-2 cell monolayer; assay: Transepithelial transport of HTS and TS in Caco-2 monolayers; details: 2 h, compared to MIX; for transepithelial permeability in presence of glucose: 40 µg/mL HTS and TS with 10 mM glucose; for transepithelial permeability in presence of cellulose: 40 µg/mL HTS and TS with 1% cellulose
[7] = Standardized static in vitro simulation of gastrointestinal digestion of OPE (bioaccessibility), alone or co-digested with food; format: in vitro ADME; details: for bioaccessible amount after gastrointestinal digestion / amount in OPE before gastrointestinal digestion: OPE; for bioaccessible amount after gastrointestinal digestion: after simulated gastrointestinal digestion; for amount in OPE before gastrointestinal digestion: before digestion (start of the printed increase); for effect of standardized food model (SFM) on bioaccessibility: digestion with SFM compared to other applied methods
Experimental: Total polyphenols (total reductive capacity) of analyzed samples was assessed by Folin–Ciocalteu method that relies on the transfer of electrons in alkaline medium from phenolic (or other reductive) compounds to phosphomolybdic/phosphotungstic acid complexes, which are determined spectroscopically at 765 nm. Experiments were conducted according to the protocol described by Ainsworth and co-workers. Moreover, 20 µL of adequately diluted sample/standard/solvent (blank) were added in triplicate to 96-well plate (Thermo Fisher Scientific 130188, Rochester, NY, USA) and incubated at 37 °C with 50 µL of Folin Ciocalteu reagent (10% (v/v)) for 5 min. The 160 µL of Na2CO3 (700 mM) was added into each well, shaken, and incubated at 37 °C for 30 min. Absorbance was read at 765 nm and results were expressed as gallic acid equivalents (GAE). HTS and TS were identified and quantified by HPLC system (Waters Alliance 2695, Milford, MA, USA) coupled with a 2475 Multi λ detector (FLD) with Xenon lamp, according to slightly modified method of Tsarbopoulos and co-workers. Samples were prepared by filtration through 0.45 μm polyethersulfone (PES) syringe filters (Macherey–Nagel, Düren, Germany). Chromatographic separation was conducted by injecting 20 μL of sample on a reversed phase column (250 × 4.6 mm, 5 μm) (Agilent Zorbax Eclipse Plus C18, Santa Clara, CA, USA). Mobile phases were 0.05 M sodium acetate buffer pH 5 and acetonitrile with the flow rate of 1 mL/min. Elution was conducted over 25 min at 25 °C. Identification was performed with FLD set at the excitation wavelength of 280 nm, and emission wavelength of 316 nm. Polyphenols were identified by comparing the retention times of the eluting peaks with those of the standards. Peaks were quantified by using the Empower2 software (Waters, Milford, MA, USA) and compared to external standard calibration. Standard stock solutions were prepared by dissolving reference compounds in DMSO. In vitro simulation of gastrointestinal digestion and the assessment of bioaccessibility of hydroxytyrosol and tyrosol from OPE was conducted by standardized static in vitro digestion method suitable for food. Three-phase digestion process was applied consisting of short salivary phase, simulation of gastric digestion and simulation of duodenal digestion. Briefly, 200 mg of OPE was used alone or mixed with 600 mg of food matrix (Table S4) in 50 mL Falcon tube. The 875 µL of SSF, 125 µL of salivary α amylase solution, 6.25 µL of CaCl2 (0.3 mol/L), and 243.8 µL of water was added, and the mixture incubated at 37 °C for 2 min with constant shaking. The 2.5 mL of reaction mixture were transferred to another Falcon tube and mixed with 1.875 mL of SGF, 1.25 µL of CaCl2 (0.3 mol/L), and 50 µL of HCl (1 mol/L). The pH of the mixture was adjusted to 3, and total volume was adjusted to 5 mL with water. The content of the Falcon tube was vortexed and incubated for 2 h at 37 °C with constant shaking. Every 15 min pH of the mixture was checked and adjusted to 3 if necessary. At the end of simulation of the gastric digestion step, 5 mL of aliquot were transferred to another 50 mL Falcon tube for the simulation of intestinal digestion. The 2.75 mL of SIF, 1.25 mL of pancreatin solution, 0.625 mL of bile salt (160 mmol/L), 10 µL of CaCl2 (0.3 mol/L), and 37.5 µL of NaOH (1 mol/L) were added. The pH was checked and adjusted to 7. Total volume of reaction mixture was adjusted to […], mixtures were vortexed and incubated for 2 h at 37 °C with constant shaking. Every 15 min, pH of the mixture was checked and adjusted to 7 if necessary. After digestion, simulation samples were cooled at −20 °C for 10 min and centrifuged (Heraeus Biofuge Stratos, Hanau, Germany) for 20 min at 4 °C and 4100 rpm. For HPLC analysis of hydroxytyrosol and tyrosol, obtained supernatants were additionally filtered through 0.45 µm polyether sulfone (PES) syringe filters. […]

[8] = set-up: method as in PMID 18209271; details: after virgin olive oil ingestion; cited from earlier work
[9] = OPE co-digested with apple (peeled, no skin), relative to OPE without food
[10] = OPE co-digested with banana, relative to OPE without food
[11] = OPE co-digested with breakfast cereals, relative to OPE without food
[12] = OPE co-digested with canned tuna, relative to OPE without food
[13] = OPE co-digested with cellulose, relative to OPE without food
[14] = OPE co-digested with corn starch, relative to OPE without food
[15] = OPE co-digested with fresh low fat cheese, relative to OPE without food
[16] = OPE co-digested with honey, relative to OPE without food
[17] = OPE co-digested with milk formula, relative to OPE without food
[18] = OPE co-digested with milk, relative to OPE without food
[19] = OPE co-digested with potato (boiled), relative to OPE without food
[20] = OPE co-digested with silverbeat (blanched), relative to OPE without food
[21] = OPE co-digested with souce bolognese, relative to OPE without food
[22] = OPE co-digested with sour cream, relative to OPE without food
[23] = OPE co-digested with soy flakes, relative to OPE without food
[24] = OPE co-digested with whole-grain bread, relative to OPE without food
[25] = OPE co-digested with yoghurt, relative to OPE without food
[26] = OPE digested without food (reference)

SMILES	greater absorption from olive oil compared to aqueous solution [2] [%]	influence of food-induced changes of pH and digestion fluid composition on bioaccessibility [4]	water solubility [5] [mg/mL]	transepithelial permeability in presence of glucose [6]	transepithelial permeability in presence of cellulose [6]	relative bioaccessibility [7, 9] [%]	relative bioaccessibility [7, 10] [%]	relative bioaccessibility [7, 11] [%]	relative bioaccessibility [7, 12] [%]	relative bioaccessibility [7, 13] [%]	relative bioaccessibility [7, 14]	relative bioaccessibility [7, 15] [%]	relative bioaccessibility [7, 16]	relative bioaccessibility [7, 17] [%]	relative bioaccessibility [7, 18] [%]	relative bioaccessibility [7, 19] [%]	relative bioaccessibility [7, 20] [%]	relative bioaccessibility [7, 21] [%]	relative bioaccessibility [7, 22] [%]	relative bioaccessibility [7, 23] [%]	further results
OCCc1ccc(O)c(O)c1 [HTS, 3-hydroxytyrosol]	25	do not influence	17.4 (≈ 113 mM)	significantly improved	did not result in increased permeability	54.8 ± 0.72	65.8 ± 5.05	76.0 ± 2.30	98.3 ± 4.92	108.2 ± 2.24	94.9% and 94.9 ± 2.19%	95.5 ± 8.16	89.5% and 89.5 ± 7.26%	95.9 ± 0.96	98.6 ± 3.11	92.8 ± 5.88	69.3 ± 0.79	84.2 ± 4.61	102.3 ± 2.18	69.8 ± 1.06	change of bioaccessibility by presence of foods [1]: −20%; change of intestinal permeability by presence of foods [3]: −10%; transepithelial permeability in presence of inulin ([6]; 40 µg/mL HTS and TS with 1% inulin): significant reduction; relative bioaccessibility ([7]; OPE co-digested with pectin, relative to OPE without food): 93.2% and 93.2 ± 3.04%; relative bioaccessibility [7, 24]: 57.4 ± 0.97%; relative bioaccessibility [7, 25]: 92.5 ± 0.82%; relative bioaccessibility [7, 26]: 100.0 ± 2.86%; bioaccessible amount after gastrointestinal digestion [7]: 109.3 mg/100g; amount in OPE before gastrointestinal digestion [7]: 78.4 mg/100g; effect of standardized food model (SFM) on bioaccessibility [7]: no effect; time of peak concentration in plasma [8]: around 1 h; time of peak in urine [8]: 0 to 2 h
OCCc1ccc(O)cc1 [TS, tyrosol]	25	do not influence	25.3 (≈ 183 mM)	significantly improved	did not result in increased permeability	67.2 ± 0.55	104.5 ± 2.15	79.3 ± 8.70	98.5 ± 1.12	87.4	88.7% and 88.1 ± 1.66%	106.4 ± 4.35	97.8% and 97.8 ± 0.91%	81.3 ± 3.95	94.6 ± 1.63	92.4 ± 1.64	89.9 ± 4.59	92.4 ± 0.46	97.4 ± 3.34	93.0 ± 1.93	relative bioaccessibility [7, 24]: 73.0 ± 0.66%; relative bioaccessibility [7, 25]: 73.8 ± 1.42%; relative bioaccessibility [7, 26]: 99.9 ± 6.75%; bioaccessible amount after gastrointestinal digestion [7]: 27.4 mg/100g; amount in OPE before gastrointestinal digestion [7]: 20.7 mg/100g; effect of standardized food model (SFM) on bioaccessibility [7]: no effect; time of peak concentration in plasma [8]: around 1 h; time of peak in urine [8]: 0 to 2 h
